From ChEMBL document CHEMBL4382259, “Synthesis of novel guttiferone E and xanthochymol derivatives with cytotoxicities by inducing cell apoptosis and arresting the cell cycle phase” (Eur J Med Chem, 2019)

Assays:
Assay type in all cases: functional, cell-based
[1] = system: A549; test: Antiproliferative activity against human A549 cells after 72 hrs by MTT assay; conditions: A549, 72 h
[2] = system: HEL; test: Antiproliferative activity against HEL cells after 72 hrs by MTT assay; conditions: Homo sapiens
[3] = system: K562; test: Antiproliferative activity against human K562 cells after 72 hrs by MTT assay; conditions: K562, 72 h
[4] = system: MCF7; test: Antiproliferative activity against human MCF7 cells after 72 hrs by MTT assay; conditions: MCF7, 72 h
[5] = system: HeLa; test: Antiproliferative activity against human HeLa cells after 72 hrs by MTT assay

SMILES | IC50 [1] [µM] | IC50 [2] [µM] | IC50 [3] [µM] | IC50 [4] [µM] | IC50 [5] [µM]
CC(C)=CC[C@H]1C[C@@]23C[C@@H](CC=C(C)C)C(C)(C)[C@@](CC=C(C)C)(C(=O)C(C(=O)c4ccc(O)c(OC(=O)CCCCCBr)c4)=C2OC1(C)C)C3=O | > 20 | 9.62 | 14.5 | > 20 | > 20
CC(C)=CCOc1ccc(C(=O)C2=C3OC(C)(C)[C@@H](CC=C(C)C)C[C@@]34C[C@@H](CC=C(C)C)C(C)(C)[C@@](CC=C(C)C)(C2=O)C4=O)cc1OCC=C(C)C | 17.2 | > 20 | > 20 | > 20 | > 20
CC(C)=CC[C@H]1C[C@@]23C[C@@H](CC=C(C)C)C(C)(C)[C@@](CC=C(C)C)(C(=O)C(C(=O)c4ccc(OCc5ccccc5)c(OCc5ccccc5)c4)=C2OC1(C)C)C3=O | > 20 | > 20 | > 20 | 15.1 | 10.6
CC(C)=CCOc1ccc(C(=O)C2=C3OC(C)(C)[C@@H](CC=C(C)C)C[C@@]34C[C@@H](CC=C(C)C)C(C)(C)[C@@](CC=C(C)C)(C2=O)C4=O)cc1O | > 20 | > 20 | > 20 | 18.6 | 12.2
CC(C)=CC[C@H]1C[C@@]23C[C@@H](CC=C(C)C)C(C)(C)[C@@](CC=C(C)C)(C(=O)C(C(=O)c4ccc(OC(=O)c5cccs5)c(OC(=O)c5cccs5)c4)=C2OC1(C)C)C3=O | 20 | > 20 | > 20 | 16.5 | 8.8
C=CC(=O)Oc1cc(C(=O)C2=C3OC(C)(C)[C@@H](CC=C(C)C)C[C@@]34C[C@@H](CC=C(C)C)C(C)(C)[C@@](CC=C(C)C)(C2=O)C4=O)ccc1O | > 20 | 4.66 | 10.7 | > 20 | 19.4
CC(C)=CC[C@H]1C[C@@]23C[C@@H](CC=C(C)C)C(C)(C)[C@@](CC=C(C)C)(C(=O)C(C(=O)c4ccc(OCc5ccccc5)c(O)c4)=C2OC1(C)C)C3=O | 10.6 | > 20 | > 20 | > 20 | 15.9
CCCCCC(=O)Oc1cc(C(=O)C2=C3OC(C)(C)[C@@H](CC=C(C)C)C[C@@]34C[C@@H](CC=C(C)C)C(C)(C)[C@H]3CCC(C)(C)O[C@]34OC2=O)ccc1O | 19.5 | 9.53 | 13.5 | 15.5 | > 20
CC(C)=CC[C@H]1C[C@@]23C[C@@H](CC=C(C)C)C(C)(C)[C@@](CC=C(C)C)(C(=O)C(C(=O)c4ccc(OCCCCCN5CCOCC5)c(O)c4)=C2OC1(C)C)C3=O | > 20 | > 20 | > 20 | 16 | > 20
